Results as given in patent US5215991A, “Combination of selective alpha-adrenergic agonists and Na^+ /H^+ e x” (priority 1990, dated 1993).

Columns and labels:
[1] = tested on: New Zealand White rabbits with normotensive IOP; test: Intraocular pressure (IOP) after topical ocular administration in normotensive New Zealand White rabbits; assay type: in vivo, New Zealand White rabbit; conditions: for ΔIOP at 1 Hr., (X + p) / ΔIOP at 3 Hr., (X + p): Na+/H+ inhibitor X (1%) followed 30 min later by p-amino clonidine (0.1%), mean change from pre-drug level; for ΔIOP at 1 Hr., (X + p): 1 hour post p-amino clonidine; for ΔIOP at 3 Hr., (X + p): 3 hours post p-amino clonidine; for IOP change, amiloride analog administered alone: amiloride analogs alone, Example 2; for ΔIOP at 1 Hr., (X + p) - p / ΔIOP at 3 Hr., (X + p) - p: difference between X (1%) + p-amino clonidine (0.1%) and p-amino clonidine alone; for ocular hypotensive response to the alpha2 agonist after pretreatment with the Na+/H+ exchange inhibitor: pretreatment with Na+/H+ exchange inhibitor (1%) 30 min before the alpha2 agonist, FIGS. 2-4
Method: Ocular co-administration of an alpha2 agonist and a Na^+ /H^+ exchange inhibitor to effect lowering of IOP was experimentally tested in the New Zealand White rabbit.
The effect of co-administrating of alpha2 agonists and a Na^+ /H^+ exchange inhibitor on lowering IOP was testing in New Zealand White rabbits with normotensive IOP and weighing 3-4 kg. Topical anesthesia was produced by instillation of about 5 μl of […].
Separate solution of various alpha2 agonists and a Na^+ /H^+ exchange inhibitor were prepared by dissolving the specified quantity of agonists or the Na^+ /H^+ exchange inhibitor in distilled water to obtain the concentrations shown below in Table III. The pH of the final solutions ranged from about 4 to about 7.5 as indicated by the characteristics of the individual drugs.
The animals were divided into 2 groups. One group was treated with the Na^+ /H^+ exchange inhibitor followed by an alpha2 agonist and the other group received vehicle followed by the alpha2 agonist. Intraocular pressure (IOP) was measured in both eyes for each animal using a calibrated DIGILAB® pneumatonograph. […] Thirty minutes after application of the Na^+ /H^+ exchange inhibitor or vehicle, IOP was again measured for the eye. Immediately following these measurements, 50 μl of one of the alpha2 agonists solution given in Table III was administered to the test eye in the same manner described above. Thereafter, IOP measurements for each eye of each animal were made at 30 minutes after administration of the alpha2 agonist, then hourly for 6 hours. In separate experiments, the IOP response to the Na^+ /H^+ exchange inhibitor alone was determined.
In another series of experiments, carried out in substantially the same manner as set forth in Example 1, various amiloride analogs with varying potencies at inhibiting Na^+ /H^+ exchange were co-administered with an alpha2 agonist, p-amino clonidine, and IOP determine. […] The data are expressed as mean changes from pre-drug levels.

Na^+ /H^+ exchange = conditions: inhibition of Na+/H+ exchange in human neutrophils; data taken from Simchowitz and Cragoe, Mol. Pharmacol. 30, 112-120, 1986; cited from earlier work

## CN(C)c1nc(N)c(C(=O)N=C(N)N)nc1Cl [5-(N,N-dimethyl) amiloride]
[1]
  ΔIOP at 1 Hr., (X + p): +1.8 mmHg
  ΔIOP at 3 Hr., (X + p): +0.7 mmHg
  IOP change, amiloride analog administered alone: substantially inactive
  ΔIOP at 1 Hr., (X + p) - p: -1.2 mmHg
  ΔIOP at 3 Hr., (X + p) - p: -1.9 mmHg
Na^+ /H^+ exchange
  Ki: 6.9 µM

## NC(N)=NC(=O)c1nc(Cl)c(N2CCCCCC2)nc1N [5-(N,N-hexamethylene) amiloride]
[1]
  ΔIOP at 1 Hr., (X + p): -8.6 mmHg
  ΔIOP at 3 Hr., (X + p): -7.5 mmHg
  IOP change, amiloride analog administered alone: substantially inactive
  ΔIOP at 1 Hr., (X + p) - p: -11.6 mmHg
  ΔIOP at 3 Hr., (X + p) - p: -10.1 mmHg
Na^+ /H^+ exchange
  Ki: 0.16 µM

## CCN(c1nc(N)c(C(=O)N=C(N)N)nc1Cl)C(C)C [5-(N-ethyl-N-isopropyl) amiloride]
[1]
  ΔIOP at 1 Hr., (X + p): -7.2 mmHg
  ΔIOP at 3 Hr., (X + p): -5.7 mmHg
  IOP change, amiloride analog administered alone: substantially inactive
  ΔIOP at 1 Hr., (X + p) - p: -10.2 mmHg
  ΔIOP at 3 Hr., (X + p) - p: -7.4 mmHg
[1]; three concentrations (0.1, 0.3, 1%), topical, FIG. 1
  IOP response to the Na+/H+ exchange inhibitor alone: did not significantly alter IOP
Na^+ /H^+ exchange
  Ki: 0.36 µM

## Brc1c(NC2=NCCN2)ccc2nccnc12 [5-bromo-6-(2-imidazolidine-2-ylamino)quinoxaline]
[1]
  ocular hypotensive response to the alpha2 agonist after pretreatment with the Na+/H+ exchange inhibitor: augmented

## N=C(N)NC(=O)c1nc(Cl)c(N)nc1N [Amiloride]
[1]
  ΔIOP at 1 Hr., (X + p): +3.0 mmHg
  ΔIOP at 3 Hr., (X + p): +2.6 mmHg
  ΔIOP at 1 Hr., (X + p) - p: +0.2 mmHg
  ΔIOP at 3 Hr., (X + p) - p: +0.6 mmHg
Na^+ /H^+ exchange
  Ki: 83.8 µM

## Clc1cccc(Cl)c1N=C1NCCN1 [clonidine]
[1]
  ocular hypotensive response to the alpha2 agonist after pretreatment with the Na+/H+ exchange inhibitor: augmented

## Nc1cc(Cl)c(NC2=NCCN2)c(Cl)c1 [p-amino clonidine, p-aminoclonidine]
[1]
  ocular hypotensive response to the alpha2 agonist after pretreatment with the Na+/H+ exchange inhibitor: augmented
